Measured values: patent publication US9604933B2, “Pyrazolochalcones as potential anticancer agents” (COUNCIL OF SCIENTIFIC AND INDUSTRIAL RESEARCH, priority 2013, dated 2017)
Read-outs that look alike come from different tables or passages of the source.

Tests used:
Ovarian = test: NCI SRB cytotoxicity, ovarian panel average; format: cell-based, human; conditions: average of cell lines
Method: (§1) The pyrazolochalcones (7e, 8e, 10e, 11e, 12e, 13e and 8f) have been tested against fifty nine human tumor cell lines derived from nine cancer types (leukemia, non-small cell lung cancer, colon cancer, CNS cancer, melanoma, ovarian cancer, renal cancer, prostate cancer and breast cancer) as per the NCI protocol. For each compound, dose response curves for individual cell lines have been measured at a minimum of five concentrations at 10 fold dilutions. A protocol of 48 h continuous drug exposure has been used, and a sulforhodamine B (SRB) protein assay has been used to estimate cell viability or growth. The concentration for 50% cell growth inhibition (GI50), 50% cell death (LC50, 50% growth) and total cell growth inhibition (TGI, 0% growth) values were tabulated (Table-1). DMSO was used as control to calculate the values of GI50, LC50 and TGI. The compounds 7e, 8e, 10e, 11e, 12e, 13e and 8f has been evaluated for their in vitro cytotoxicity in […] cell lines from nine human cancer types of leukemia (K-562, SR), non-small cell lung (Hop-62, NCI-H226, NCI-H522), colon (HCT-116, HCT-15, HCC-2998), CNS (SF-539), melanoma (SK-MEL-5, UACC-62, M14), ovarian (IGROV1), renal (A498), prostate (PC3) and breast (BT-549, MDA-MB-435, HS578T) origin. The results are expressed as percent of cell growth determined relative to that of untreated control cells (Table 2).
(§2) Each cancer type represents the average of six to eight different cancer cell lines.

Renal = test: NCI SRB cytotoxicity, renal panel average; format: cell-based, human; conditions: average of cell lines
Method: as §1, §2

786-0 = test: NCI SRB cytotoxicity, renal 786-0; format: cell-based; conditions: Homo sapiens, 48 h exposure
Method: as §1

NCI-H23 = test: NCI SRB cytotoxicity, non-small cell lung NCI-H23; format: cell-based; conditions: Homo sapiens, 48 h exposure
Method: as §1

BT-549 = test: NCI SRB cytotoxicity, breast BT-549; format: cell-based; conditions: Homo sapiens, 48 h exposure
Method: as §1

NCIH322M = test: NCI SRB cytotoxicity, non-small cell lung NCIH322M; format: cell-based; conditions: Homo sapiens, NCI-H322M, 48 h exposure
Method: as §1

TK-10 = test: NCI SRB cytotoxicity, renal TK-10; format: cell-based; conditions: Homo sapiens, 48 h exposure
Method: as §1

Prostate = test: NCI SRB cytotoxicity, prostate panel average; format: cell-based, human; conditions: average of cell lines
Method: as §1, §2

human tumor cell lines = test: NCI SRB cytotoxicity, all fifty nine human tumor cell lines; format: cell-based; set-up: Log10 TGI mean graph midpoint (MG_MID): unit not given here; conditions: for GI50: Homo sapiens
Method: as §1
The mean graph midpoint values of Log10 TGI and Log10 LC50 as well as Log10 GI50 for compounds 7e, 8e, 10e, 11e, 12e, 13e and 8f is listed in Table-3. […] The mean graph mid points of Log10 TGI and Log10, LC50 have shown similar pattern to the log10 GI50 mean graph mid points.

SK-MEL-5 = test: NCI SRB cytotoxicity, melanoma SK-MEL-5; format: cell-based; conditions: Homo sapiens, 48 h exposure
Method: as §1

SW-620 = test: NCI SRB cytotoxicity, colon SW-620; format: cell-based; conditions: Homo sapiens, 48 h exposure
Method: as §1

A498 = test: NCI SRB cytotoxicity, renal A498; format: cell-based; conditions: Homo sapiens, 48 h exposure
Method: as §1

Breast = test: NCI SRB cytotoxicity, breast panel average; format: cell-based, human; conditions: average of cell lines
Method: as §1, §2

IGROV1 = test: NCI SRB cytotoxicity, ovarian IGROV1; format: cell-based; conditions: Homo sapiens, IGROV-1, 48 h exposure
Method: as §1

KM12 = test: NCI SRB cytotoxicity, colon KM12; format: cell-based; conditions: Homo sapiens, 48 h exposure
Method: as §1

NCI-H226 = test: NCI SRB cytotoxicity, non-small cell lung NCI-H226; format: cell-based; conditions: Homo sapiens, 48 h exposure
Method: as §1

CNS = test: NCI SRB cytotoxicity, CNS panel average; format: cell-based, human; conditions: average of cell lines
Method: as §1, §2

OVCAR-5 = test: NCI SRB cytotoxicity, ovarian OVCAR-5; format: cell-based; conditions: Homo sapiens, 48 h exposure
Method: as §1

Leukemia = test: NCI SRB cytotoxicity, leukemia panel average; format: cell-based, human; conditions: average of cell lines
Method: as §1, §2

UO-31 = test: NCI SRB cytotoxicity, renal UO-31; format: cell-based; conditions: Homo sapiens, 48 h exposure
Method: as §1

HL-60(TB) = test: NCI SRB cytotoxicity, leukemia HL-60(TB); format: cell-based; conditions: Homo sapiens, 48 h exposure
Method: as §1

MOLT-4 = test: NCI SRB cytotoxicity, leukemia MOLT-4; format: cell-based; conditions: Homo sapiens, 48 h exposure
Method: as §1

T-47D = test: NCI SRB cytotoxicity, breast T-47D; format: cell-based; conditions: Homo sapiens, T47D, 48 h exposure
Method: as §1

RPMI-8226 = test: NCI SRB cytotoxicity, leukemia RPMI-8226; format: cell-based; conditions: Homo sapiens, 48 h exposure
Method: as §1

HCT-15 = test: NCI SRB cytotoxicity, colon HCT-15; format: cell-based; conditions: Homo sapiens, 48 h exposure
Method: as §1

A549/ATCC = test: NCI SRB cytotoxicity, non-small cell lung A549/ATCC; format: cell-based; conditions: Homo sapiens, 48 h exposure
Method: as §1

MDA-MB-435 = test: NCI SRB cytotoxicity, breast panel MDA-MB-435; format: cell-based; conditions: Homo sapiens, 48 h exposure
Method: as §1

Colon = test: NCI SRB cytotoxicity, colon panel average; format: cell-based, human; conditions: average of cell lines
Method: as §1, §2

ACHN = test: NCI SRB cytotoxicity, renal ACHN; format: cell-based; conditions: Homo sapiens, 48 h exposure
Method: as §1

MCF7 = test: NCI SRB cytotoxicity, breast MCF7; format: cell-based; conditions: Homo sapiens, 48 h exposure
Method: as §1

HOP-62 = test: NCI SRB cytotoxicity, non-small cell lung HOP-62; format: cell-based; conditions: Homo sapiens, 48 h exposure
Method: as §1

MDA-MB-231/ATCC = test: NCI SRB cytotoxicity, breast MDA-MB-231/ATCC; format: cell-based; conditions: Homo sapiens, 48 h exposure
Method: as §1

RXF 393 = test: NCI SRB cytotoxicity, renal RXF 393; format: cell-based; conditions: Homo sapiens, 48 h exposure
Method: as §1

[1] = Homo sapiens, read-out: Log10 LC50 (concentration in mol/L causing 50% cell death) (converted)

With `COc1ccc(C(=O)/C=C/c2cc(-c3ccc4c(c3)OCO4)n[nH]2)cc1OC` [8f, (E)-3-(3-(benzo[d][1,3]dioxol-5-yl)-1H-pyrazol-5-yl)-1-(3,4-dimethoxyphenyl)prop-2-en-1-one] the CC50 (Ovarian; [1]) was 52500 nM, the “Log10 GI50 (concentration in mol/L causing 50% growth inhibition)” value (Ovarian) was −5.58 mol/L and the “Log10 TGI (concentration in mol/L causing total growth inhibition (0% growth))” value (Ovarian) was −4.87 mol/L. For the same compound, the CC50 (Renal; [1]) was 32400 nM, the “Log10 GI50 (concentration in mol/L causing 50% growth inhibition)” value (Renal) was −5.46 mol/L and the “Log10 TGI (concentration in mol/L causing total growth inhibition (0% growth))” value (Renal) was −5.01 mol/L. The GI50 (786-0) was 3120 nM, the GI50 (NCI-H23) was 4120 nM and the GI50 (BT-549) was 1900 nM. The GI50 (NCIH322M) was 2480 nM, the GI50 (TK-10) was 2800 nM and the CC50 (Prostate; [1]) was 31600 nM. The “Log10 GI50 (concentration in mol/L causing 50% growth inhibition)” value (Prostate) was −5.66 mol/L, the “Log10 TGI (concentration in mol/L causing total growth inhibition (0% growth))” value (Prostate) was −5.05 mol/L and the GI50 (human tumor cell lines; across fifty nine cell lines in nine cell panels, read-out: GI50 value range) was 180 to 29200 nM. For the same compound, the GI50 (human tumor cell lines; against human tumor cell lines, read-out: Log10 GI50 mean graph midpoint (MG_MID) (converted)) was 2750 nM, the cytotoxicity (human tumor cell lines; against cancer cell lines, in words) was “significant cytotoxicity” and the “Log10 TGI mean graph midpoint (MG_MID)” value (human tumor cell lines; against human tumor cell lines) was −4.98. For the same compound, the LC50 (human tumor cell lines; against human tumor cell lines, read-out: Log10 LC50 mean graph midpoint (MG_MID) (converted)) was 43700 nM, the GI50 (SK-MEL-5) was 6740 nM and the GI50 (SW-620) was 2050 nM. The GI50 (A498) was 1550 nM, the CC50 (Breast; [1]) was 39800 nM and the “Log10 GI50 (concentration in mol/L causing 50% growth inhibition)” value (Breast) was −4.76 mol/L. The “Log10 TGI (concentration in mol/L causing total growth inhibition (0% growth))” value (Breast) was −5.05 mol/L, the GI50 (IGROV1) was 2790 nM and the GI50 (KM12) was 2860 nM. The GI50 (NCI-H226) was 3400 nM, the LC50 (CNS; [1]) was 0.000155 mol/L and the “Log10 GI50 (concentration in mol/L causing 50% growth inhibition)” value (CNS) was −5.65 mol/L. The “Log10 TGI (concentration in mol/L causing total growth inhibition (0% growth))” value (CNS) was −5.14 mol/L, the GI50 (OVCAR-5) was 3360 nM and the CC50 (Leukemia; [1]) was 0.0001 mol/L. The “Log10 GI50 (concentration in mol/L causing 50% growth inhibition)” value (Leukemia) was −5.69 mol/L, the “Log10 TGI (concentration in mol/L causing total growth inhibition (0% growth))” value (Leukemia) was −5.03 mol/L and the GI50 (UO-31) was 2300 nM. For the same compound, the GI50 (HL-60(TB)) was 2820 nM, the GI50 (MOLT-4) was 3000 nM and the GI50 (T-47D) was 3200 nM. For the same compound, the GI50 (RPMI-8226) was 1030 nM, the GI50 (HCT-15) was 2810 nM and the GI50 (A549/ATCC) was 2700 nM. The GI50 (MDA-MB-435) was 1800 nM, the LC50 (Colon; [1]) was 0.000676 mol/L and the “Log10 GI50 (concentration in mol/L causing 50% growth inhibition)” value (Colon) was −5.52 mol/L. The “Log10 TGI (concentration in mol/L causing total growth inhibition)” value (Colon) was −4.85 mol/L, the GI50 (ACHN) was 3490 nM and the GI50 (MCF7) was 3200 nM. The GI50 (HOP-62) was 2080 nM, the GI50 (MDA-MB-231/ATCC) was 2400 nM and the GI50 (RXF 393) was 2420 nM.
